Patent US20180161425A1, “NOVEL PROTEIN STRUCTURE USED FOR EFFICIENT ANTIBODY PRODUCTION IN IMMUNIZATION” (priority 2014, published 2018)
Several values for one entry are separate records, joined by “and”; a condition that tells them apart may be missing. Equal values may be shown once.

How the values were obtained:
MDCK cells = format: cell-based
MCP-1 = tested on: MCP-1; parameters: species or system mice; settings: mouse, in vivo

Substance | cell binding and internalization of FITC labeled peptide (MDCK cells) | cell binding activity when compared to AH2 peptide (MDCK cells) | other results
DRLFFKCIYRRFKYGLKRG [AH5] | did not bind to the membrane as well as AH2, they did all bind and were internalized to the cell at different levels | – | –
DRLFFKCIYRRLKYGLKRG [AH3] | did not bind to the membrane as well as AH2, they did all bind and were internalized to the cell at different levels | – | –
KRLFKLSYIETRYMASDK [SWS-AH] | – | 24% | –
flagellin | – | – | plasma MCP-1 level (MCP-1): 3000 pg/mL and 2600 pg/mL
RTLSLLRRLFFKSDLGFL [AHV-AH] | – | 40% | –
MHSATAAQLETLRLFKFP [ANMV-AH] | – | 15% | –
MPRLFKIYAKNYFLTYPN [TYLCV-AH] | – | 25% | –
DRLFFKCVYRLFKHGLKRG [AH4] | did not bind to the membrane as well as AH2, they did all bind and were internalized to the cell at different levels | – | –
